Results on 43 compounds are retold here after patent US10226464B2, “Small molecule NF-κB inhibitors” (ImmuneTarget, Inc., priority 2015, dated 2019).

One test relates to NF-κB. The test can be described thus: NF-κB GFP Assay (NFκB/Jurkat/GFP transcriptional reporter cell line). It counts as cell-based. As to conditions: Homo sapiens; NF-κB/Jurkat/GFP reporter cells, TNF-α 5 ng/ml, 24 hours; read-out: NF-KB GFP IC50. The protocol:
NFκB/Jurkat/GFP transcriptional reporter cell line was obtained from SBI System Biosciences. NF-κB/Jurkat/GFP™ Reporter cells (5×10^5 cells) were plated at a concentration of 1 million cells/ml into each well of a 24-well plate. TNF-α (5 ng/ml) was added. Compounds were added via serial dilutions to corresponding wells. After 24 hours, 100 μl of the cells were transferred to a well of a Costar® UV plate (96 well, No lid, w/ UV Transparent Flat Bottom, Corning, N.Y., Cat#3635) and the intensity of GFP fluorescence was measured (Excitation 485+/−20, Emission 528+/−20) in a Synergy™ HT Multi-Detection Microplate Reader (BioTech, Winooski, Vt.). The intensities of GFP measured were plotted against the […].

In a further test the target is c-Rel protein (Homo sapiens (Human), UniProt Q04864). The test can be described thus: Electrophoretic Mobility Shift Assay (EMSA), Rel/NF-κB DNA binding inhibition. Conditions: 10 nM c-Rel protein, phosphor-labeled CD28RE oligonucleotide. The protocol: Electrophoretic Mobility Shift Assay (EMSA)
Sequence of c-Rel protein (Q04864 whole entry): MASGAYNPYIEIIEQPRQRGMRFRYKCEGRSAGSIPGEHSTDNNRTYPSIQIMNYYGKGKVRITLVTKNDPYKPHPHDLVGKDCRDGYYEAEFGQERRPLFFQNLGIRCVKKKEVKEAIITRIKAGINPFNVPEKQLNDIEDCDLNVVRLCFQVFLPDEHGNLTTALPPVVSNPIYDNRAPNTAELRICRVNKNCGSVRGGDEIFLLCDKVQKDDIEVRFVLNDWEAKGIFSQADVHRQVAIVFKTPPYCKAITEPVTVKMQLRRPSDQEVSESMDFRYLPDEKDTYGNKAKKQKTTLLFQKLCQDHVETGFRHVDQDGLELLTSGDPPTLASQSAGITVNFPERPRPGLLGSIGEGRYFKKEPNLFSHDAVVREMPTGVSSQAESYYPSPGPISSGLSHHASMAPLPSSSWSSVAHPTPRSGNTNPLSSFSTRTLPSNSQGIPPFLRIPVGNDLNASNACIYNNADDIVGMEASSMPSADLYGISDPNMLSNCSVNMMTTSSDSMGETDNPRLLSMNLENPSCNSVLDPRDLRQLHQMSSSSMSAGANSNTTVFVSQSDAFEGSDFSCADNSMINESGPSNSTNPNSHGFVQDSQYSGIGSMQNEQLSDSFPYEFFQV
DNA binding reaction (20 μL) was carried out in 1×DNA Binding Buffer (10 mM Tris, 40 mM NaCl, 1 mM EDTA, 4% glycerol) with 10 nM c-Rel protein and 0.5 ng phosphor-labeled CD28RE oligonucleotide for 10 minutes at room temperature in 96-well plates. Test compounds, in serial dilutions, were added into each well, and further incubated for 15 minutes before loading onto native 5% polyacrylamide gel. Electrophoresis proceeded for 2.5 hours at 160V. Radioactive signals were quantified using Phospho-Imager. IC50 of compounds of example 1 to 75 were determined by quantifying the intensity of Rel/NF-κB inhibition in EMSA using phospho-imager. An example of EMSA data of the present invention is shown for compound 6 in FIG. 2.
(In general: Mobility shift assays separate free from complexed probe on a gel.)

For `COc1cccc2cc3c(=O)[nH]c(=O)nc-3oc12` [Compound 1, 9-methoxy-2H-chromeno[2,3-d]pyrimidine-2,4(3H)-dione], the figures for the IC50 in the test with NF-κB and on c-Rel protein were below 30 µM and below 2 µM, respectively. On the same counts, the results for `CCOc1cccc2cc3c(=O)[nH]c(=O)nc-3oc12` [Compound 2, 9-ethoxy-2H-chromeno[2,3-d]pyrimidine-2,4(3H)-dione] are below 30 µM and below 2 µM. On the same counts, the results for `COc1cc(Cl)cc2cc3c(=O)[nH]c(=O)nc-3oc12` [Compound 3, 7-chloro-9-methoxy-2H-chromeno[2,3-d]pyrimidine-2,4(3H)-dione] are below 30 µM and below 2 µM.

With `COc1cc(Br)cc2cc3c(=O)[nH]c(=O)nc-3oc12` [Compound 4, 7-bromo-9-methoxy-2H-chromeno[2,3-d]pyrimidine-2,4(3H)-dione], the IC50 is below 30 µM in the test with NF-κB and below 2 µM at c-Rel protein.

As to `CCOc1cc(Cl)cc2cc3c(=O)[nH]c(=O)nc-3oc12` [Compound 5], the IC50 with NF-κB was below 30 µM; on c-Rel protein, below 2 µM.

With `COc1ccc2cc3c(=O)[nH]c(=O)nc-3oc2c1` [Compound 6, 8-methoxy-2H-chromeno[2,3-d]pyrimidine-2,4(3H)-dione], the concentration for half-maximal inhibition (IC50) was below 10 µM with NF-κB and below 1 µM at c-Rel protein. Consider `COc1cc(Cl)cc2cc3c(=O)[nH]c(=S)nc-3oc12` [Compound 7, 7-chloro-9-methoxy-2-thioxo-2H-chromeno[2,3-d]pyrimidin-4(3H)-one], for which the figures for the 50% inhibitory concentration (IC50) with NF-κB and at c-Rel protein were below 30 µM and below 2 µM, respectively.

As to `COc1ccc2cc3c(=O)[nH]c(=S)nc-3oc2c1` [Compound 8, 8-methoxy-2-thioxo-2H-chromeno[2,3-d]pyrimidin-4(3H)-one], the half-maximal inhibitory concentration (IC50) was below 30 µM with NF-κB and below 0.5 µM at c-Rel protein.

As for `O=c1nc2oc3ccccc3cc-2c(=O)[nH]1` [Compound 9, 2H-chromeno[2,3-d]pyrimidine-2,4(3H)-dione], the figures for the IC50 in the test on NF-κB and at c-Rel protein were below 20 µM and below 5 µM, respectively. Consider `COc1ccc2oc3nc(=O)[nH]c(=O)c-3cc2c1` [Compound 10, 7-methoxy-2H-chromeno[2,3-d]pyrimidine-2,4(3H)-dione], for which the half-maximal inhibitory concentration (IC50) in the test with NF-κB is below 30 µM; on c-Rel protein, below 1 µM. On the same counts, the results for `O=c1nc2oc3cc(O)ccc3cc-2c(=O)[nH]1` [Compound 11, 8-hydroxy-2H-chromeno[2,3-d]pyrimidine-2,4(3H)-dione] are below 20 µM and below 1 µM.

With `Cc1ccc2cc3c(=O)[nH]c(=O)nc-3oc2c1` [Compound 12, 8-methyl-2H-chromeno[2,3-d]pyrimidine-2,4(3H)-dione], the values for the IC50 in the test with NF-κB and at c-Rel protein were 7 µM and below 1 µM, respectively. For `CCOc1ccc2cc3c(=O)[nH]c(=O)nc-3oc2c1` [Compound 13, 8-ethoxy-2H-chromeno[2,3-d]pyrimidine-2,4(3H)-dione] the same measures were 9 µM and below 1 µM.

On to `COc1cc(OC)c2cc3c(=O)[nH]c(=O)nc-3oc2c1` [Compound 14, 6,8-dimethoxy-2H-chromeno[2,3-d]pyrimidine-2,4(3H)-dione], for which the concentration for half-maximal inhibition (IC50) in the test with NF-κB is 8.2 µM; on c-Rel protein, below 1 µM. As to `COc1ccc2oc3nc(=S)[nH]c(=O)c-3cc2c1` [Compound 15, 7-methoxy-2-thioxo-2H-chromeno[2,3-d]pyrimidin-4(3H)-one], the concentration for half-maximal inhibition (IC50) in the test on NF-κB is below 30 µM; at c-Rel protein it was below 0.5 µM. Regarding `O=c1[nH]c(=S)nc2oc3cc(O)ccc3cc1-2` [Compound 16, 8-hydroxy-2-thioxo-2H-chromeno[2,3-d]pyrimidin-4(3H)-one], the IC50 is below 30 µM in the test with NF-κB and below 0.5 µM on c-Rel protein. On to `Cc1ccc2cc3c(=O)[nH]c(=S)nc-3oc2c1` [Compound 17, 8-methyl-2-thioxo-2H-chromeno[2,3-d]pyrimidin-4(3H)-one], for which the half-maximal inhibitory concentration (IC50) with NF-κB was below 30 µM; on c-Rel protein, below 0.5 µM. With `COc1cc(OC)c2cc3c(=O)[nH]c(=S)nc-3oc2c1` [Compound 18, 6,8-dimethoxy-2-thioxo-2H-chromeno[2,3-d]pyrimidin-4(3H)-one], on c-Rel protein, the half-maximal inhibitory concentration (IC50) is below 0.5 µM.

Consider `CCCOc1ccc2cc3c(=O)[nH]c(=O)nc-3oc2c1` [Compound 19, 8-propoxy-2H-chromeno[2,3-d]pyrimidine-2,4(3H)-dione], for which the IC50 with NF-κB was below 5 µM; on c-Rel protein, below 1 µM. In the case of `CCCOc1cc2oc3nc(=O)[nH]c(=O)c-3cc2cc1Cl` [Compound 20, 7-chloro-8-propoxy-2H-chromeno[2,3-d]pyrimidine-2,4(3H)-dione], the half-inhibitory concentration (IC50) in the test on NF-κB was below 5 µM; on c-Rel protein, below 1 µM. For the compound `CCCCCCOc1ccc2cc3c(=O)[nH]c(=O)nc-3oc2c1` [Compound 21, 8-(n-hexyloxy)-2H-chromeno[2,3-d]pyrimidine-2,4(3H)-dione], the 50% inhibitory concentration (IC50) with NF-κB is below 5 µM; on c-Rel protein, below 1 µM.

For `CCOc1ccc2cc3c(=O)[nH]c(=O)nc-3oc2c1Cl` [Compound 22, 9-chloro-8-ethoxy-2H-chromeno[2,3-d]pyrimidine-2,4(3H)-dione], the IC50 with NF-κB was below 10 µM; at c-Rel protein it was below 1 µM.

For `CC(C)COc1ccc2cc3c(=O)[nH]c(=O)nc-3oc2c1` [Compound 23, 8-isobutoxy-2H-chromeno[2,3-d]pyrimidine-2,4(3H)-dione], the results for the IC50 in the test on NF-κB and at c-Rel protein were below 5 µM and below 1 µM, respectively. Take `CCCCn1c(=O)nc2oc3cc(OCC)ccc3cc-2c1=O` [Compound 24, 3-(n-butyl)-8-ethoxy-2H-chromeno[2,3-d]pyrimidine-2,4(3H)-dione]: the IC50 in the test on NF-κB was below 30 µM; on c-Rel protein, below 1 µM. Consider `CCCc1cc2oc3nc(=O)[nH]c(=O)c-3cc2cc1Cl` [Compound 25, 7-chloro-8-propyl-2H-chromeno[2,3-d]pyrimidine-2,4(3H)-dione], for which the figures for the IC50 in the test on NF-κB and at c-Rel protein were below 30 µM and below 1 µM, respectively. For `CCCCn1c(=O)nc2oc3cc(OCC)c(Cl)cc3cc-2c1=O` [Compound 26, 3-butyl-7-chloro-8-ethoxy-2H-chromeno[2,3-d]pyrimidine-2,4(3H)-dione] the same measures were below 30 µM and below 1 µM. On the same counts, the results for `Cc1cc2oc3nc(=O)[nH]c(=O)c-3cc2cc1F` [Compound 27, 7-fluoro-8-methyl-2H-chromeno[2,3-d]pyrimidine-2,4(3H)-dione] are below 5 µM and below 0.5 µM. For `CCOc1cc2oc3nc(=O)[nH]c(=O)c-3cc2cc1F` [Compound 28, 8-ethoxy-7-fluoro-2H-chromeno[2,3-d]pyrimidine-2,4(3H)-dione] the same measures were below 5 µM and below 0.5 µM. For `CCCCOc1cc2oc3nc(=O)[nH]c(=O)c-3cc2cc1F` [Compound 29], the IC50 was below 5 µM in the test on NF-κB and below 0.5 µM on c-Rel protein. On to `CCCCCOc1cc2oc3nc(=O)[nH]c(=O)c-3cc2cc1F` [Compound 30], for which the IC50 with NF-κB is below 10 µM; on c-Rel protein, below 0.5 µM. Regarding `CCCCCCOc1cc2oc3nc(=O)[nH]c(=O)c-3cc2cc1F` [Compound 31], the IC50 with NF-κB is below 5 µM; at c-Rel protein it was below 0.5 µM. As for `CCCCCCCOc1cc2oc3nc(=O)[nH]c(=O)c-3cc2cc1F` [Compound 32], the IC50 with NF-κB was below 5 µM; at c-Rel protein it was below 0.5 µM. On the same counts, the results for `CC(C)CCOc1cc2oc3nc(=O)[nH]c(=O)c-3cc2cc1F` [Compound 33] are below 3 µM and below 0.5 µM. Turning to `CC(C)(C)CCOc1cc2oc3nc(=O)[nH]c(=O)c-3cc2cc1F` [Compound 34], the IC50 with NF-κB was 10 µM; on c-Rel protein, below 0.5 µM. As to `CC(C)CCCOc1cc2oc3nc(=O)[nH]c(=O)c-3cc2cc1F` [Compound 35], the IC50 in the test on NF-κB was below 10 µM; at c-Rel protein it was below 1 µM. On the same counts, the results for `CC(C)(C)COc1cc2oc3nc(=O)[nH]c(=O)c-3cc2cc1F` [Compound 36] are below 10 µM and below 0.5 µM. On to `CCCCCCOc1cc2oc3nc(=O)[nH]c(=O)c-3cc2cc1Cl` [Compound 37], for which the values for the half-inhibitory concentration (IC50) with NF-κB and on c-Rel protein were below 20 µM and below 0.5 µM, respectively. For `CC(C)COc1cc2oc3nc(=O)[nH]c(=O)c-3cc2cc1Cl` [Compound 38] the same measures were below 20 µM and below 0.5 µM. On to `CCCCCOc1ccc2cc3c(=O)[nH]c(=O)nc-3oc2c1Cl` [Compound 39], for which the values for the IC50 in the test on NF-κB and at c-Rel protein were below 3 µM and below 0.5 µM, respectively. On the same counts, the results for `CC(C)CCOc1ccc2cc3c(=O)[nH]c(=O)nc-3oc2c1Cl` [Compound 40] are 5 µM and below 0.5 µM. As to `CC(C)(C)CCOc1ccc2cc3c(=O)[nH]c(=O)nc-3oc2c1Cl` [Compound 41], the concentration for half-maximal inhibition (IC50) in the test with NF-κB was below 10 µM; at c-Rel protein, below 0.5 µM. On the same counts, the results for `CCCCCCCOc1ccc2cc3c(=O)[nH]c(=O)nc-3oc2c1Cl` [Compound 42] are below 10 µM and below 0.5 µM. On the same counts, the results for `CCCCOc1ccc2cc3c(=O)[nH]c(=O)nc-3oc2c1Cl` [Compound 43] are below 3 µM and below 0.5 µM.

As usually defined, the IC50 is the point on the concentration scale where inhibition reaches its midpoint.
